# Laboratory results taken from ChEMBL document CHEMBL1201862, “PubChem BioAssay data set” (2004).
#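 These data come from cells grown in 96-well plates and exposed to compound for 48 hours at five concentrations. GI50: concentration for 50% inhibition of growth.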 Active and inactive are the calls of the source. Rule as the data show it: active = GI50 up to about 1.1 µM and inactive = higher.
# Tests used:
# Assay in all cases: DTP human tumour cell line panel, 48 h
# K562 = system: K562
# MDA-N = system: MDA-N
# Hs-578T = system: Hs-578T
# IGROV-1 = system: IGROV-1
# BT-549 = system: BT-549
# SN12C = system: SN12C
# UO-31 = system: UO-31
# SF-268 = system: SF-268
# SK-OV-3 = system: SK-OV-3
# U-251 = system: U-251
# NCI-H522 = system: NCI-H522
# SK-MEL-2 = system: SK-MEL-2
# RXF 393 = system: RXF 393
# DU-145 = system: DU-145
# T47D = system: T47D
# SK-MEL-28 = system: SK-MEL-28
# MDA-MB-231 = system: MDA-MB-231
# OVCAR-8 = system: OVCAR-8
# OVCAR-4 = system: OVCAR-4
# Malme-3M = system: Malme-3M
Structure (SMILES),GI50 (K562),GI50 (MDA-N),GI50 (Hs-578T),GI50 (IGROV-1),GI50 (BT-549),GI50 (SN12C),GI50 (UO-31),GI50 (SF-268),GI50 (SK-OV-3),GI50 (U-251),GI50 (NCI-H522),GI50 (SK-MEL-2),GI50 (RXF 393),GI50 (DU-145),GI50 (T47D),GI50 (SK-MEL-28),GI50 (MDA-MB-231),GI50 (OVCAR-8),GI50 (OVCAR-4),GI50 (Malme-3M)
O=C(CCc1ccc(O)c(O)c1)NCCc1cc(O)cc(O)c1,25.7 µM (inactive),23.8 µM (inactive),> 100 µM (inactive),> 100 µM (inactive),> 100 µM (inactive),> 100 µM (inactive),63.5 µM (inactive),> 100 µM (inactive),> 100 µM (inactive),> 100 µM (inactive),71 µM (inactive),> 100 µM (inactive),> 100 µM (inactive),> 100 µM (inactive),> 100 µM (inactive),> 100 µM (inactive),> 100 µM (inactive),> 100 µM (inactive),,
O=C(c1ccsc1)c1nccc2c1cnc1ccccc12,,> 100 µM (inactive),17 µM (inactive),0.286 µM (active),> 100 µM (inactive),> 100 µM (inactive),6.55 µM (inactive),77.3 µM (inactive),54.8 µM (inactive),85.1 µM (inactive),12.7 µM (inactive),> 100 µM (inactive),84.9 µM (inactive),> 100 µM (inactive),> 100 µM (inactive),> 100 µM (inactive),61 µM (inactive),> 100 µM (inactive),94.8 µM (inactive),65.5 µM (inactive)
O=[N+]([O-])c1cccc2nc3ccccc3c(NCCc3cccc[n+]3[O-])c12,0.0168 µM (active),0.0153 µM (active),0.0782 µM (active),,< 0.0165 µM (active),< 0.0199 µM (active),< 0.0193 µM (active),< 0.0476 µM (active),0.153 µM (active),< 0.038 µM (active),0.0187 µM (active),0.0619 µM (active),0.0196 µM (active),< 0.01 µM (active),< 0.0378 µM (active),< 0.01 µM (active),< 0.01 µM (active),< 0.0176 µM (active),0.0541 µM (active),< 0.0144 µM (active)
O=C1C=CC(=O)c2c1cc([N+](=O)[O-])c1ccoc21,2.75 µM (inactive),17.1 µM (inactive),28.1 µM (inactive),17.7 µM (inactive),16.9 µM (inactive),15.2 µM (inactive),3.01 µM (inactive),26.2 µM (inactive),20.4 µM (inactive),18.5 µM (inactive),2.07 µM (inactive),18.4 µM (inactive),1.97 µM (inactive),9.06 µM (inactive),2.8 µM (inactive),20.1 µM (inactive),21.3 µM (inactive),26.2 µM (inactive),18.9 µM (inactive),
NC(CC(=O)O)(Cc1ccccc1)C(=O)O (stereo not given),> 100 µM (inactive),> 100 µM (inactive),> 100 µM (inactive),> 100 µM (inactive),> 100 µM (inactive),> 100 µM (inactive),> 100 µM (inactive),,> 100 µM (inactive),> 100 µM (inactive),> 100 µM (inactive),> 100 µM (inactive),> 100 µM (inactive),> 100 µM (inactive),> 100 µM (inactive),> 100 µM (inactive),> 100 µM (inactive),> 100 µM (inactive),> 100 µM (inactive),> 100 µM (inactive)
Cc1cn(C2CC(O)C(CO[Si](C)(C)C(C)(C)C)OC2OC(C)C)c(=O)[nH]c1=O (stereo not given),49.3 µM (inactive),36.1 µM (inactive),67.3 µM (inactive),29.8 µM (inactive),44.9 µM (inactive),39.6 µM (inactive),44.8 µM (inactive),51.3 µM (inactive),,39.3 µM (inactive),30.2 µM (inactive),36 µM (inactive),34 µM (inactive),> 100 µM (inactive),72.3 µM (inactive),41 µM (inactive),35.2 µM (inactive),33.5 µM (inactive),44.5 µM (inactive),44.5 µM (inactive)
Clc1ccc(Nc2nn3c(CCCCCCCCc4nnc5sc(Nc6ccc(Cl)cc6)nn45)nnc3s2)cc1,50.5 µM (inactive),> 100 µM (inactive),> 100 µM (inactive),,> 100 µM (inactive),> 100 µM (inactive),> 100 µM (inactive),> 100 µM (inactive),> 100 µM (inactive),37 µM (inactive),> 100 µM (inactive),> 100 µM (inactive),> 100 µM (inactive),> 100 µM (inactive),> 100 µM (inactive),> 100 µM (inactive),29.4 µM (inactive),> 100 µM (inactive),> 100 µM (inactive),> 100 µM (inactive)
CSc1ncnc2c1ncn2C1OC(CO)C(O)OC1O (stereo not given),1.16 µM (inactive),2.24 µM (inactive),20.9 µM (inactive),0.897 µM (active),1.83 µM (inactive),1.06 µM (active),1.79 µM (inactive),7.69 µM (inactive),20 µM (inactive),9.35 µM (inactive),3.34 µM (inactive),2.76 µM (inactive),11.7 µM (inactive),0.697 µM (active),0.612 µM (active),13.7 µM (inactive),0.396 µM (active),2.12 µM (inactive),10.7 µM (inactive),14 µM (inactive)
Cc1nc(-c2ccc(Cl)cc2)cn2c1nc1ccccc12,> 72.3 µM (inactive),> 100 µM (inactive),> 100 µM (inactive),11.1 µM (inactive),> 93.5 µM (inactive),> 100 µM (inactive),,> 100 µM (inactive),> 100 µM (inactive),> 100 µM (inactive),> 100 µM (inactive),> 100 µM (inactive),> 100 µM (inactive),> 100 µM (inactive),0.955 µM (active),> 100 µM (inactive),> 100 µM (inactive),> 100 µM (inactive),> 100 µM (inactive),> 100 µM (inactive)
CCOC(=O)C(=NN(C)c1ncccc1N)C(=O)OCC,25.4 µM (inactive),34.8 µM (inactive),> 100 µM (inactive),61 µM (inactive),> 100 µM (inactive),24.7 µM (inactive),38.8 µM (inactive),> 100 µM (inactive),> 100 µM (inactive),> 100 µM (inactive),,29.6 µM (inactive),84.9 µM (inactive),> 100 µM (inactive),25.9 µM (inactive),> 100 µM (inactive),25.6 µM (inactive),38.3 µM (inactive),97.3 µM (inactive),29.1 µM (inactive)
N#Cc1c(C#N)c(-c2cccc([N+](=O)[O-])c2)n(-c2ccccc2)c1N,> 100 µM (inactive),> 100 µM (inactive),55.1 µM (inactive),89.1 µM (inactive),5.11 µM (inactive),> 100 µM (inactive),> 100 µM (inactive),88.7 µM (inactive),96.2 µM (inactive),44.8 µM (inactive),> 100 µM (inactive),> 100 µM (inactive),41.7 µM (inactive),> 100 µM (inactive),> 100 µM (inactive),,38.7 µM (inactive),99.3 µM (inactive),11.5 µM (inactive),> 100 µM (inactive)
COc1ccc2c(c1)C1=NCCN(CCN(C)C)c3ccc([N+](=O)[O-])c(c31)N2,0.364 µM (active),0.542 µM (active),1.75 µM (inactive),0.708 µM (active),0.815 µM (active),0.568 µM (active),0.735 µM (active),0.509 µM (active),0.259 µM (active),0.649 µM (active),,1.45 µM (inactive),0.757 µM (active),0.48 µM (active),0.156 µM (active),1.28 µM (inactive),0.196 µM (active),0.526 µM (active),0.191 µM (active),0.431 µM (active)
Cc1cc2c(cc1C)OC(=O)CC2,> 100 µM (inactive),> 100 µM (inactive),> 100 µM (inactive),> 100 µM (inactive),> 100 µM (inactive),> 100 µM (inactive),> 100 µM (inactive),> 100 µM (inactive),,> 100 µM (inactive),> 100 µM (inactive),> 100 µM (inactive),> 100 µM (inactive),> 100 µM (inactive),> 100 µM (inactive),> 100 µM (inactive),> 100 µM (inactive),> 100 µM (inactive),> 100 µM (inactive),> 100 µM (inactive)
COc1ccc2ccc3oc(=O)c(C)cc3c2c1,> 100 µM (inactive),> 100 µM (inactive),78 µM (inactive),> 100 µM (inactive),> 100 µM (inactive),> 100 µM (inactive),25.2 µM (inactive),> 100 µM (inactive),,> 100 µM (inactive),> 100 µM (inactive),> 100 µM (inactive),> 100 µM (inactive),> 100 µM (inactive),43.3 µM (inactive),> 100 µM (inactive),33.9 µM (inactive),> 100 µM (inactive),> 100 µM (inactive),> 100 µM (inactive)
Cc1nc2c(cc1C(=O)N/N=C/c1ccc([N+](=O)[O-])cc1)c(=O)n(C)c(=O)n2C,> 100 µM (inactive),> 100 µM (inactive),31.1 µM (inactive),42.4 µM (inactive),30.5 µM (inactive),> 100 µM (inactive),> 100 µM (inactive),25.4 µM (inactive),39.4 µM (inactive),19.2 µM (inactive),,31.8 µM (inactive),18.6 µM (inactive),94.6 µM (inactive),80.4 µM (inactive),> 100 µM (inactive),22.1 µM (inactive),32.4 µM (inactive),> 100 µM (inactive),> 100 µM (inactive)
